Reference: patent publication US10729759B2, “Fluorocarbon-linked peptide formulation” (priority 2010, dated 2020)
Entries after “also recorded” stand apart in the source; their conditions may differ. Where two headings read alike, the source gives them in different places.

Columns and labels:
[1] = assay type: physicochemical; conditions: for Further dilution in Mannitol:Water Solubility: FCP 0.167 mM, 1.33% (w/v) mannitol, cloudiness / particulates; for Dispersion in Water Solubility: FCP 1.333 mM in water, vortexed and sonicated, cloudiness (Clear/Cloudy−/Cloudy/Cloudy+) / particulates
Experimental: The solubility of each FCP in water was assessed. Each FCP was dispersed in 300 μl of water to a final concentration of 1.333 mM and vortexed and sonicated. The typical dispersion conditions were four sequences of three minutes bath sonication interspersed by 30 seconds vortexing. After inspection, the resulting solution was diluted with a mannitol solution (a candidate lyophilisation medium, final concentration of peptide 0.167 mM, 1.33% (w/v) mannitol). Solubility was assessed by visual observation of the cloudiness of the resulting dispersion (scaled: Clear/Cloudy−/Cloudy/Cloudy+) and presence of particulates. […]

[2] = assay type: physicochemical; conditions: 1.33% mannitol, 0.22 μm PVDF filter; for YIELD % of each FCP following sterile filtration, MIX 1: MIX 1 dispersed in water; for YIELD % of each FCP following sterile filtration, MIX 2: MIX 2 dispersed in water
[3] = assay type: physicochemical; conditions: for Percentage acetic acid (% v/v): minimum concentration for acceptable dispersibility and solubility: FCP 2 μmol/ml after acetic acid dispersion; for Visual appearance after dispersion: at the listed acetic acid concentration, FCP 2 μmol/ml
Experimental: In order to limit the concentration of acetic acid downstream in the formulation process and in the final product, the lowest concentration of acetic acid in water to achieve efficient dispersion and maintain visible solubility was determined for each fluorocarbon-linked peptide. When using mannitol as a cryprotectant, it is important to minimize the acetic acid concentration at the lyophilisation stage in order to achieve a stable and amorphous freeze-dried product. The minimum acetic acid concentration to achieve acceptable dispersibility and solubility of the individual fluorocarbon-linked peptides was determined. The final concentration of fluorocarbon-linked peptide after initial acetic acid dispersion was 2 μmol/ml and after dilution with mannitol, 0.250 μmol/ml.

[4] = 10 mg net/ml in 10% or 80% acetic acid

CC[C@H](C)[C@H](NC(=O)[C@@H]1CCCN1C(=O)[C@H](C)NC(=O)[C@@H](N)CCCCNC(=O)CCC(F)(F)C(F)(F)C(F)(F)C(F)(F)C(F)(F)C(F)(F)C(F)(F)C(F)(F)F)C(=O)N[C@@H](CCSC)C(=O)N[C@@H](Cc1ccccc1)C(=O)N[C@@H](CO)C(=O)N[C@@H](CC(N)=O)C(=O)N[C@@H](CCCCN)C(=O)N[C@@H](CCSC)C(=O)N[C@@H](C)C(=O)N[C@@H](CCCNC(=N)N)C(=O)N[C@@H](CC(C)C)C(=O)NCC(=O)N[C@@H](CCCCN)C(=O)NCC(=O)N[C@@H](Cc1ccc(O)cc1)C(=O)N[C@@H](CCSC)C(=O)N[C@@H](Cc1ccccc1)C(=O)N[C@@H](CCC(=O)O)C(=O)N[C@@H](CO)C(=O)N[C@@H](CCCCN)C(=O)N[C@@H](CO)C(=O)N[C@@H](CCSC)C(=O)N[C@@H](CCCCN)C(=O)N[C@@H](CC(C)C)C(=O)N[C@@H](CCCNC(=N)N)C(=O)N[C@H](C(=O)N[C@@H](CCC(N)=O)C(=O)N[C@H](C(=O)N1CCC[C@H]1C(=O)N[C@@H](C)C(=O)N[C@@H](CCC(=O)O)C(=O)N[C@@H](CCSC)C(=O)N[C@@H](CC(C)C)C(=O)N[C@@H](C)C(N)=O)[C@@H](C)CC)[C@@H](C)O [FCP3]
Further dilution in Mannitol:Water Solubility [1]: partially soluble; also recorded: Clear/Particulates
Dispersion in Water Solubility [1]: Cloudy−/Particulates
YIELD % of each FCP following sterile filtration, MIX 1 [2]: 28.6%

CC[C@H](C)[C@H](NC(=O)[C@@H]1CCCN1C(=O)[C@H](C)NC(=O)[C@@H](N)CCCCNC(=O)CCC(F)(F)C(F)(F)C(F)(F)C(F)(F)C(F)(F)C(F)(F)C(F)(F)C(F)(F)F)C(=O)N[C@@H](CCSC)C(=O)N[C@@H](Cc1ccccc1)C(=O)N[C@@H](CO)C(=O)N[C@@H](CC(N)=O)C(=O)N[C@@H](CCCCN)C(=O)N[C@@H](CCSC)C(=O)N[C@@H](C)C(=O)N[C@@H](CCCNC(=N)N)C(=O)N[C@@H](CC(C)C)C(=O)NCC(=O)N[C@@H](CCCCN)C(=O)NCC(=O)N[C@@H](Cc1ccc(O)cc1)C(=O)N[C@@H](CCSC)C(=O)N[C@@H](Cc1ccccc1)C(=O)N[C@@H](CCC(=O)O)C(=O)N[C@@H](CO)C(=O)N[C@@H](CCCCN)C(=O)N[C@@H](CCCNC(=N)N)C(=O)N[C@@H](CCSC)C(=O)N[C@@H](CCCCN)C(=O)N[C@@H](CC(C)C)C(=O)N[C@@H](CCCNC(=N)N)C(=O)N[C@H](C(=O)N[C@@H](CCC(N)=O)C(=O)N[C@H](C(=O)N1CCC[C@H]1C(=O)N[C@@H](C)C(=O)N[C@@H](CCC(=O)O)C(=O)N[C@@H](CCSC)C(=O)N[C@@H](CC(C)C)C(=O)N[C@@H](C)C(N)=O)[C@@H](C)CC)[C@@H](C)O [FCP2]
Further dilution in Mannitol:Water Solubility [1]: fully soluble; also recorded: Clear/No Particulates
Dispersion in Water Solubility [1]: Cloudy−/No Particulates
YIELD % of each FCP following sterile filtration, MIX 2 [2]: 97.3%
Percentage acetic acid (% v/v): minimum concentration for acceptable dispersibility and solubility [3]: 10 % v/v
Visual appearance after dispersion [3]: Clear
Ease of solubility, Cycle 1 Vortexing (10 mg net/ml in 10% (FCP1, 2, 4, 5) or 80% (FCP9, 8) acetic acid): Clear
Ease of solubility, Cycle 1 Sonication [4]: Clear
Ease of solubility, Cycle 2 Sonication [4]: Clear
Ease of solubility, Cycle 2 Vortexing [4]: Clear
Ease of solubility, Cycle 3 Sonication [4]: Clear
Ease of solubility, Cycle 3 Vortexing [4]: Clear
Visual appearance after dispersion (10 mg net/ml in AcOH 10% or 80%): Clear

CC[C@H](C)[C@H](NC(=O)[C@H](CO)NC(=O)[C@@H](NC(=O)CNC(=O)[C@H](CC(C)C)NC(=O)[C@@H](NC(=O)[C@@H](NC(=O)[C@H](CO)NC(=O)[C@H](CC(C)C)NC(=O)[C@H](CCSC)NC(=O)[C@H](CC(N)=O)NC(=O)[C@H](Cc1ccccc1)NC(=O)[C@H](CCSC)NC(=O)CNC(=O)[C@H](CCSC)NC(=O)[C@H](CCSC)NC(=O)[C@H](CCSC)NC(=O)CNC(=O)[C@@H]1CCCN1C(=O)[C@H](CO)NC(=O)[C@@H](N)CCCCNC(=O)CCC(F)(F)C(F)(F)C(F)(F)C(F)(F)C(F)(F)C(F)(F)C(F)(F)C(F)(F)F)[C@@H](C)O)C(C)C)C(C)C)C(=O)N[C@@H](CC(C)C)C(=O)N[C@@H](CC(N)=O)C(=O)N[C@@H](CC(C)C)C(=O)NCC(=O)N[C@@H](CCC(N)=O)C(=O)N[C@@H](CCCCN)C(=O)N[C@@H](CCCCN)C(=O)N[C@@H](Cc1ccc(O)cc1)C(=O)N[C@H](C(=O)N[C@@H](CCCCN)C(=O)N[C@H](C(=O)N[C@H](C(=O)N[C@@H](Cc1ccc(O)cc1)C(N)=O)[C@@H](C)O)[C@@H](C)O)[C@@H](C)O [FCP6]
Further dilution in Mannitol:Water Solubility [1]: partially soluble; also recorded: Clear/Particulates
Dispersion in Water Solubility [1]: Cloudy−/Particulates
YIELD % of each FCP following sterile filtration, MIX 1 [2]: 74.1%
YIELD % of each FCP following sterile filtration, MIX 2 [2]: 8.8%
Percentage acetic acid (% v/v): minimum concentration for acceptable dispersibility and solubility [3]: 80 % v/v
Visual appearance after dispersion [3]: Clear
Physical stability of formulation at less than 80% (v/v) acetic acid ([3]; gel or soluble particulates formed over time): physically unstable over time

CC[C@H](C)[C@H](NC(=O)[C@H](CCCNC(=N)N)NC(=O)[C@H](CCSC)NC(=O)CNC(=O)[C@H](CO)NC(=O)CNC(=O)[C@H](CCCNC(=N)N)NC(=O)[C@@H](NC(=O)[C@H](CC(N)=O)NC(=O)[C@@H](NC(=O)[C@@H](NC(=O)[C@H](CC(C)C)NC(=O)[C@H](CO)NC(=O)[C@H](CO)NC(=O)[C@H](Cc1ccccc1)NC(=O)[C@H](CCC(N)=O)NC(=O)[C@H](CCSC)NC(=O)[C@H](CCCNC(=N)N)NC(=O)[C@H](CO)NC(=O)[C@H](CCC(N)=O)NC(=O)[C@@H](N)CCCCNC(=O)CCC(F)(F)C(F)(F)C(F)(F)C(F)(F)C(F)(F)C(F)(F)C(F)(F)C(F)(F)F)[C@@H](C)O)C(C)C)C(C)C)C(=O)N[C@@H](CC(C)C)C(=O)N[C@H](C(=O)N[C@@H](CCCNC(=N)N)C(=O)NCC(=O)N[C@@H](CC(N)=O)C(=O)N[C@@H](CO)C(=O)N1CCC[C@H]1C(=O)N[C@H](C(=O)N[C@@H](Cc1ccccc1)C(=O)N[C@@H](CC(N)=O)C(=O)N[C@@H](Cc1ccc(O)cc1)C(=O)N[C@@H](CC(N)=O)C(=O)N[C@@H](CCCCN)C(N)=O)C(C)C)C(C)C [FCP11]
Further dilution in Mannitol:Water Solubility [1]: fully soluble; also recorded: Clear/No Particulates
Dispersion in Water Solubility [1]: fully soluble; also recorded: Clear/No Particulates
YIELD % of each FCP following sterile filtration, MIX 2 [2]: 49.4%

CC[C@H](C)[C@H](NC(=O)[C@H](CO)NC(=O)[C@H](CC(C)C)NC(=O)[C@@H](NC(=O)[C@H](CC(N)=O)NC(=O)[C@H](CCCNC(=N)N)NC(=O)[C@H](Cc1ccccc1)NC(=O)[C@H](Cc1c[nH]c2ccccc12)NC(=O)[C@H](CCC(=O)O)NC(=O)[C@@H]1CCCN1C(=O)[C@H](CCC(N)=O)NC(=O)[C@H](CC(N)=O)NC(=O)[C@H](CCCCN)NC(=O)[C@@H](NC(=O)[C@@H](NC(=O)[C@H](Cc1ccc(O)cc1)NC(=O)[C@@H](N)CCCCNC(=O)CCC(F)(F)C(F)(F)C(F)(F)C(F)(F)C(F)(F)C(F)(F)C(F)(F)C(F)(F)F)[C@@H](C)CC)[C@@H](C)O)[C@@H](C)CC)C(=O)N[C@@H](C)C(=O)N1CCC[C@H]1C(=O)N[C@H](C(=O)N[C@@H](CCSC)C(=O)N[C@@H](Cc1ccccc1)C(=O)N[C@@H](CO)C(=O)N[C@@H](CC(N)=O)C(=O)N[C@@H](CCCCN)C(=O)N[C@@H](CCSC)C(=O)N[C@@H](C)C(=O)N[C@@H](CCCNC(=N)N)C(=O)N[C@@H](CC(C)C)C(=O)NCC(=O)N[C@@H](CCCCN)C(=O)NCC(=O)N[C@@H](Cc1ccc(O)cc1)C(=O)N[C@@H](CCSC)C(=O)N[C@@H](Cc1ccccc1)C(=O)N[C@@H](CCC(=O)O)C(N)=O)[C@@H](C)CC [FCP10]
Further dilution in Mannitol:Water Solubility [1]: partially soluble; also recorded: Clear/Particulates
Dispersion in Water Solubility [1]: Cloudy−/Particulates
YIELD % of each FCP following sterile filtration, MIX 2 [2]: 90.7%
